The source of these data is patent publication US6537996B2, “Modulators of p38 MAP kinase” (Iconix Pharmaceuticals, Inc., priority 2000, dated 2003).

The target of experiment [1] is T1, Recombinant p38 (Homo sapiens, UniProt Q16539).
T1 construct: purchased Biomol SE-150
Kind of experiment: p38 assay (32P incorporation into GST-ATF-2). In kind it is biochemical. The following applies: recombinant p38, GST-ATF-2 substrate, 30 μM ATP; IC50 estimated from graph. How it is done:
(A) Protocol: Recombinant p38 was pre-incubated for 30 minutes at room temperature in ADB (Assay Dilution Buffer: 20 mM MOPS, pH 7.2, 20 mM MgCl2, 5 mM EGTA, 1 mM DTT, 25 mM β-glycerolphosphate, 2 mM pNPP, 0.1 mM sodium orthovanadate) with recombinant GST-ATF-2 and compounds at various concentrations. The DMSO concentration was held constant at 0.1% (v/v) independent of the compound concentration. Kinase reactions were started with a mixture of ^32P-γ-ATP and ATP in ADB and were incubated for 30 minutes at 37° C. Final concentrations in kinase reactions was 0.625 ng/μl recombinant p38 (Biomol, catalog number SE-150), 62.5 ng/μl recombinant GST-ATF-2 (Upstate Biotechnology, catalog #12-367) and 30 μM ATP (Amersham, catalog #AA0068, used within two weeks of the reference date). Reactions were terminated by the addition of stopmix (final concentrations: 62.5 mM Tris pH 6.8, 10% (v/v) glycerol, 5% (v/v) B-mercaptoethanol, 20 mg/ml SDS, 1 mg/ml bromophenol blue). At this point samples were either processed directly or stored at 4° C. For analysis, samples were heated to 95° C. for 5 min and proteins were separated by SDS-PAGE using 8-16% precast gels (Novex). […] Screens were scanned using a PhosphoImager SI (Molecular Dynamics) and the amount of radioactive ^32P incorporated into GST-ATF-2 was quantified using ImageQuant (Molecular Dynamics) software. […]

For experiment [2], the system named is yeast. In words: growth rescue ARC experiments performed in yeast. In kind it is cell-based. As to conditions: Saccharomyces cerevisiae, read-out: in vivo IC50.

T1 sequence (Q16539 whole entry): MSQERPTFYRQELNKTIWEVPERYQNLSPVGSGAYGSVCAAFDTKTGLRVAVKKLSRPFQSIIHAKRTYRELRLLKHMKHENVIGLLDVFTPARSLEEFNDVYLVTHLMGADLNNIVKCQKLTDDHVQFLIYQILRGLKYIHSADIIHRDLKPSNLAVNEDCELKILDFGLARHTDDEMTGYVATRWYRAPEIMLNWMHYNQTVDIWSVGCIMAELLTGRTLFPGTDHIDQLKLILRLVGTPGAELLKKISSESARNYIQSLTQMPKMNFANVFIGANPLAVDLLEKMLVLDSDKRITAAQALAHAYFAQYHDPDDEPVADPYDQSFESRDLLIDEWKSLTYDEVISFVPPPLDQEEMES

Consider `CC(C)/N=C(/Nc1cccc(C(F)(F)F)c1)c1ccncc1` [X, N-(3-trifluoromethylphenyl)-N′-isopropyl-4-amidinopyridine], for which the IC50 is 0.75 µM in experiment [1] and 13.2 µM in experiment [2].

As a reminder, the IC50 is the concentration at which inhibition is half-maximal.
